IC50 data for 69 compounds are collected here from patent publication US11873291B2, “Quinoline cGAS antagonist compounds” (ImmuneSensor Therapeutics, Inc., priority 2020, dated 2024).

Where two headings read alike, the source gives them in different places.

In the experiment the target is T1, recombinant human cGAS (aa147-522) (Homo sapiens, UniProt Q8N884).
T1 construct: recombinant human cGAS (aa147-522); His6-SUMO (cleaved yes); made in house; host or cells: E. coli BL21/pLys
The experiment can be described thus: In vitro inhibition assay of cGAS activity (ATP consumption, KinaseGlo Max). It counts as biochemical. In a few lines:
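IC50 came from plotting % ATP consumption against log compound concentration, with leftover ATP detected by KinaseGlo Max chemiluminescence. Reactions ran 20 min at 37 °C with 1.5 μg/mL human cGAS (aa147-522), 6.6 μM ATP, 0.1 mM GTP and 0.01 mg/mL DNA at pH 7.5.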
(Kinase-Glo measures the ATP left after a reaction by luminescence.)

The mark [1] stands for this setting: Table 2, read-out: cGAS Inhibition Results IC50.
Where [2] appears, read: cGAS Inhibition Results IC50, Table 2.

T1 sequence (Q8N884 147-522): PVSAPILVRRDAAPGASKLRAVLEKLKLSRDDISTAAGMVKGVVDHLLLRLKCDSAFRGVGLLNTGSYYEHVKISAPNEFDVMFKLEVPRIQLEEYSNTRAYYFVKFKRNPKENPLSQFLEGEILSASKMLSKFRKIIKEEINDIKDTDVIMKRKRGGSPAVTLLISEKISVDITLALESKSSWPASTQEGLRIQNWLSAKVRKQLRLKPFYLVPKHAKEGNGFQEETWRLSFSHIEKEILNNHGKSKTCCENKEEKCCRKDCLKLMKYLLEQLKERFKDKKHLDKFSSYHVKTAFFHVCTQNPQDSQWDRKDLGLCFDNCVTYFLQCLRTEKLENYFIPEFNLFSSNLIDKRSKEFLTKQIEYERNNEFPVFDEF

Regarding `CN(CCC(N)=O)c1cc(-c2cn[nH]c2)c2ccc(Cl)c(Cl)c2n1` [I-191], the IC50 (as a rule, the concentration that inhibits the measured activity by half) under setting [1] is under 2000 nM. Still for that read-out and setting: with `CNC(=O)CCN(C)c1cc(-c2cn[nH]c2)c2ccc(Cl)c(Cl)c2n1` [I-192] the figure was under 2000 nM; with `CN(CCC(=O)NCc1ccccc1)c1cc(-c2cn[nH]c2)c2ccc(Cl)c(Cl)c2n1` [I-193, N-benzyl-3-((7,8-dichloro-4-(1H-pyrazol-4-yl)quinolin-2-yl)(methyl)amino)propenamide], 2000 to 30000 nM; with `CN(CCC(=O)NCCO)c1cc(-c2cn[nH]c2)c2ccc(Cl)c(Cl)c2n1` [I-194], under 2000 nM. On the same count and under the same terms, the same measure for `CN(CCC(=O)NCC(N)=O)c1cc(-c2cn[nH]c2)c2ccc(Cl)c(Cl)c2n1` [I-195]: under 2000 nM; for `CN(CCC(=O)NCC(=O)O)c1cc(-c2cn[nH]c2)c2ccc(Cl)c(Cl)c2n1` [I-196]: under 2000 nM.

`CN(C)C(=O)CCN(C)c1cc(-c2cn[nH]c2)c2ccc(Cl)c(Cl)c2n1` [I-197]: the concentration for half-maximal inhibition (IC50) under setting [1] was under 2000 nM. On the same count and under the same terms, the same measure for `CN(CCC(=O)N1CCCC(O)C1)c1cc(-c2cn[nH]c2)c2ccc(Cl)c(Cl)c2n1` (stereo not drawn) [I-198]: under 2000 nM.

As for `CN(CCC(=O)N1CCCC(CO)C1)c1cc(-c2cn[nH]c2)c2ccc(Cl)c(Cl)c2n1` (stereo not drawn) [I-199], the IC50 under setting [1] was 2000 to 30000 nM.

`CNS(=O)(=O)CCNc1cc(-n2ccnc2)c2ccc(Cl)c(Cl)c2n1` [I-201]: the half-maximal inhibitory concentration (IC50) under setting [1] was under 2000 nM.

Take `CN(C)S(=O)(=O)CCNc1cc(-n2ccnc2)c2ccc(Cl)c(Cl)c2n1` [I-202]: the 50% inhibitory concentration (IC50) under setting [1] was under 2000 nM. Still for that read-out and setting: with `NS(=O)(=O)CCNc1cc(-c2cn[nH]c2)c2ccc(Cl)c(Cl)c2n1` [I-203] the figure was under 2000 nM.

As to `CN(CCS(N)(=O)=O)c1cc(-n2ccnc2)c2ccc(Cl)c(Cl)c2n1` [I-204], under setting [1], the IC50 was under 2000 nM. On the same count and under the same terms, the same measure for `CNS(=O)(=O)CCN(C)c1cc(-n2ccnc2)c2ccc(Cl)c(Cl)c2n1` [I-205]: under 2000 nM; for `C[C@@H](CS(N)(=O)=O)Nc1cc(-n2ccnc2)c2ccc(Cl)c(Cl)c2n1` [I-206]: 2000 to 30000 nM; for `C[C@H](CS(N)(=O)=O)Nc1cc(-n2ccnc2)c2ccc(Cl)c(Cl)c2n1` [I-207]: under 2000 nM. As to `NS(=O)(=O)CC(Cc1ccccc1)Nc1cc(-n2ccnc2)c2ccc(Cl)c(Cl)c2n1` (stereo not drawn) [I-208, 2-((7,8-dichloro-4-(1H-imidazol-1-yl)quinolin-2-yl)amino)-3-phenylpropane-1-sulfonamide], the half-inhibitory concentration (IC50) under setting [1] was 2000 to 30000 nM. On the same count and under the same terms, with `CC(C)[C@H](CS(N)(=O)=O)Nc1cc(-n2ccnc2)c2ccc(Cl)c(Cl)c2n1` [I-209] the figure was over 30000 nM; with `CC(CNc1cc(-n2ccnc2)c2ccc(Cl)c(Cl)c2n1)S(N)(=O)=O` (stereo not drawn) [I-210], 2000 to 30000 nM; with `CC(CN1CCOCC1)Nc1cc(-c2cn[nH]c2)c2ccc(Cl)c(Cl)c2n1` (stereo not drawn) [I-211], 2000 to 30000 nM. Same read-out and setting: the same measure for `CCN(CCN1CCOCC1)c1cc(-c2cn[nH]c2)c2ccc(Cl)c(Cl)c2n1` [I-212]: 2000 to 30000 nM; for `Clc1ccc2c(-c3cn[nH]c3)cc(NCCN3CCOCC3)nc2c1Cl` [I-213]: 2000 to 30000 nM. Same read-out and setting: the same measure for `CN(CCN1CCOCC1)c1cc(-c2cn[nH]c2)c2ccc(Cl)c(Cl)c2n1` [I-214]: 2000 to 30000 nM. For the compound `Clc1ccc2c(-n3ccnc3)cc(NCCN3CCOCC3)nc2c1Cl` [I-215], under setting [1], the half-inhibitory concentration (IC50) was in the range of 2000 to 30000 nM.

Regarding `Clc1ccc2c(-c3cn[nH]c3)cc(N(CCN3CCOCC3)Cc3ccccc3)nc2c1Cl` [I-216], the IC50 under setting [1] is 2000 to 30000 nM.

As for `Clc1ccc2c(-c3cn[nH]c3)cc(NCC3COCCN3)nc2c1Cl` (stereo not drawn) [I-217], the concentration for half-maximal inhibition (IC50) under setting [1] was over 30000 nM.

Turning to `OCCN(CCN1CCOCC1)c1cc(-c2cn[nH]c2)c2ccc(Cl)c(Cl)c2n1` [I-218], the concentration for half-maximal inhibition (IC50) under setting [1] was under 2000 nM.

With `NS(=O)(=O)N1CCOC(CNc2cc(-n3ccnc3)c3ccc(Cl)c(Cl)c3n2)C1` (stereo not drawn) [I-219, 2-(((7,8-dichloro-4-(1H-imidazol-1-yl)quinolin-2-yl)amino)methyl)morpholine-4-sulfonamide], the IC50 under setting [1] is under 2000 nM.

Regarding `Clc1ccc2c(-c3cn[nH]c3)cc(NCC3CNCCO3)nc2c1Cl` (stereo not drawn) [I-220], the IC50 under setting [1] fell in the range of 2000 to 30000 nM. For `CC(=O)N1CCOC(CNc2cc(-c3cn[nH]c3)c3ccc(Cl)c(Cl)c3n2)C1` (stereo not drawn) [I-221, 1-(2-(((7,8-dichloro-4-(1H-pyrazol-4-yl)quinolin-2-yl)amino)methyl)morpholino)ethan-1-one], the IC50 under setting [1] was under 2000 nM. Same read-out and setting: with `O=C(CO)N1CCOC(CNc2cc(-c3cn[nH]c3)c3ccc(Cl)c(Cl)c3n2)C1` (stereo not drawn) [I-222] the figure was under 2000 nM.

As to `CN(CCNS(N)(=O)=O)c1cc(-n2ccnc2)c2ccc(Cl)c(Cl)c2n1` [I-223, N-(2-((7,8-dichloro-4-(1H-imidazol-1-yl)quinolin-2-yl)(methyl)amino)ethyl)aminosulfonamide], the IC50 under setting [1] was under 2000 nM.

In the case of `CN(CCN(C)S(N)(=O)=O)c1cc(-n2ccnc2)c2ccc(Cl)c(Cl)c2n1` [I-224], the half-maximal inhibitory concentration (IC50) under setting [1] was under 2000 nM. On the same count and under the same terms, the same measure for `CN(CCNS(C)(=O)=O)c1cc(-n2ccnc2)c2ccc(Cl)c(Cl)c2n1` [I-225]: under 2000 nM; for `CN(CCNS(=O)(=O)C1CC1)c1cc(-n2ccnc2)c2ccc(Cl)cc2n1` [I-226, N-(2-((7-chloro-4-(1H-imidazol-1-yl)quinolin-2-yl)(methyl)amino)ethyl)cyclopropanesulfonamide]: 2000 to 30000 nM; for `CN(CCNS(=O)(=O)c1ccccc1)c1cc(-n2ccnc2)c2ccc(Cl)cc2n1` [I-227]: over 30000 nM.

Turning to `CN(CCNS(=O)(=O)c1ccccc1C(F)(F)F)c1cc(-n2ccnc2)c2ccc(Cl)cc2n1` [I-228], under setting [1], the IC50 is over 30000 nM. `COCn1nccc1S(=O)(=O)NCCN(C)c1cc(-n2ccnc2)c2ccc(Cl)cc2n1` [I-229]: the half-inhibitory concentration (IC50) under setting [1] was over 30000 nM. With `CN(CCNS(=O)(=O)c1ncc[nH]1)c1cc(-n2ccnc2)c2ccc(Cl)cc2n1` [I-230], the half-maximal inhibitory concentration (IC50) under setting [1] is 2000 to 30000 nM. On the same count and under the same terms, with `CN(CCNS(=O)(=O)c1cccnc1)c1cc(-n2ccnc2)c2ccc(Cl)cc2n1` [I-231] the figure was 2000 to 30000 nM.

As for `CN(CCNS(=O)(=O)c1cncn1C)c1cc(-n2ccnc2)c2ccc(Cl)cc2n1` [I-232], under setting [1], the IC50 was 2000 to 30000 nM. For the compound `CN(CCNS(C)(=O)=O)c1cc(-n2ccnc2)c2ccc(Cl)cc2n1` [I-234], under setting [1], the IC50 was under 2000 nM. The same measure, in the same setting: the same measure for `CN(CCNS(C)(=O)=O)c1cc(-c2cn[nH]c2)c2ccc(Cl)c(Cl)c2n1` [I-235]: under 2000 nM. Same read-out and setting: the same measure for `CC(=O)NCCN(C)c1cc(-n2ccnc2)c2ccc(Cl)cc2n1` [I-236]: 2000 to 30000 nM. The same measure, in the same setting: with `CN(CCNC(=O)c1ccccc1)c1cc(-n2ccnc2)c2ccc(Cl)cc2n1` [I-237] the figure was 2000 to 30000 nM; with `CN(CCO)c1cc(-n2ccnc2)c2ccc(Cl)c(Cl)c2n1` [I-238], under 2000 nM. Regarding `OCCNc1cc(-n2ccnc2)c2ccc(Cl)c(Cl)c2n1` [I-239], the concentration for half-maximal inhibition (IC50) under setting [1] was under 2000 nM. The same measure, in the same setting: the same measure for `CN(CCO)c1cc(-c2cn[nH]c2)c2ccc(Cl)c(Cl)c2n1` [I-240]: under 2000 nM; for `C[C@@H](CO)N(C)c1cc(-n2ccnc2)c2ccc(Cl)c(Cl)c2n1` [I-241]: under 2000 nM; for `C[C@H](CO)N(C)c1cc(-n2ccnc2)c2ccc(Cl)c(Cl)c2n1` [I-242]: under 2000 nM. The same measure, in the same setting: the same measure for `CC(O)CN(C)c1cc(-n2ccnc2)c2ccc(Cl)c(Cl)c2n1` (stereo not drawn) [I-243]: under 2000 nM; for `COCCN(C)c1cc(-n2ccnc2)c2ccc(Cl)c(Cl)c2n1` [I-244]: under 2000 nM. Same read-out and setting: with `OC1(CNc2cc(-n3ccnc3)c3ccc(Cl)c(Cl)c3n2)CC1` [I-245] the figure was under 2000 nM.

Consider `OC[C@@H](Nc1cc(-n2ccnc2)c2ccc(Cl)c(Cl)c2n1)c1ccccc1` [I-246], for which the half-inhibitory concentration (IC50) under setting [1] lay within 2000 to 30000 nM. Still for that read-out and setting: the same measure for `OC[C@H](Nc1cc(-n2ccnc2)c2ccc(Cl)c(Cl)c2n1)c1ccccc1` [I-247]: 2000 to 30000 nM; for `CN(CCCO)c1cc(-c2cn[nH]c2)c2ccc(Cl)c(Cl)c2n1` [I-248]: under 2000 nM. Same read-out and setting: the same measure for `OCC(CO)Nc1cc(-n2ccnc2)c2ccc(Cl)c(Cl)c2n1` [I-249]: under 2000 nM. On the same count and under the same terms, the same measure for `O=P(O)(O)CCNc1cc(-n2ccnc2)c2ccc(Cl)c(Cl)c2n1` [I-250]: under 2000 nM. As to `O=P(O)(O)Cc1cc(-n2ccnc2)c2ccc(Cl)c(Cl)c2n1` [I-251, ((7,8-dichloro-4-(1H-imidazol-1-yl)quinolin-2-yl)methyl)phosphonic acid], the IC50 under setting [1] was over 30000 nM. Regarding `CCOP(=O)(O)Cc1cc(-n2ccnc2)c2ccc(Cl)c(Cl)c2n1` [I-252, Ethyl hydrogen (7,8-dichloro-4-(1H-imidazol-1-yl)quinolin-2-yl)methylphosphonate], under setting [2], the IC50 lay within 2000 to 30000 nM. As to `CCOP(=O)(O)CNc1cc(-c2cn[nH]c2)c2ccc(Cl)c(Cl)c2n1` [I-253, Ethyl hydrogen (7,8-dichloro-4-(1H-pyrazol-4-yl)quinolin-2-ylamino)methylphosphonate], under setting [2], the IC50 was under 2000 nM. Consider `O=P(O)(O)CNc1cc(-c2cn[nH]c2)c2ccc(Cl)c(Cl)c2n1` [I-254, (7,8-dichloro-4-(1H-pyrazol-4-yl)quinolin-2-ylamino)methylphosphonic acid], for which the half-maximal inhibitory concentration (IC50) under setting [1] is under 2000 nM.

As to `CN(CCO[PH](=O)O)c1cc(-n2ccnc2)c2ccc(Cl)c(Cl)c2n1` [I-255], the concentration for half-maximal inhibition (IC50) under setting [1] is under 2000 nM. The same measure, in the same setting: with `CN(CCCO[PH](=O)O)c1cc(-c2cn[nH]c2)c2ccc(Cl)c(Cl)c2n1` [I-256] the figure was under 2000 nM.

For `CN(CCCO[PH](=O)OCCC#N)c1cc(-c2cn[nH]c2)c2ccc(Cl)c(Cl)c2n1` (stereo not drawn) [I-257], the IC50 under setting [1] is under 2000 nM.

As to `O=[PH](O)OCCCCNc1cc(-c2cn[nH]c2)c2ccc(Cl)c(Cl)c2n1` [I-258], the IC50 under setting [1] is under 2000 nM. The same measure, in the same setting: with `NS(=O)(=O)CCNc1cc(-c2cn[nH]c2)c2cc(Cl)c(Cl)cc2n1` [I-260] the figure was under 2000 nM; with `NS(=O)(=O)CCNc1cc(-c2cn[nH]c2)c2c(Cl)c(Cl)ccc2n1` [I-261], over 30000 nM.

For the compound `NS(=O)(=O)CCNc1cc(-c2cn[nH]c2)c2ccc(Cl)c(F)c2n1` [I-262], the half-inhibitory concentration (IC50) under setting [1] was under 2000 nM.
